As usually defined, the IC50 is the concentration that gives 50% inhibition. The solubility is the concentration that dissolves in the medium under given conditions.

In one series the test system is SMMC7721 hepatoma cells. As to the kind of experiment: Anti-tumor activity in vitro, MTT method, SMMC7721. As to conditions: Homo sapiens, SMMC-7721, MTT. It is filed as cell-based, human. As to the method:
(§1) The effects of Icaritin and its derivatives on the activities of HepG2 and SMMC7721 hepatoma cells were investigated by a MTT method. […] After reaction for 48, 7 2 h, each well was added with 20 μL 5 mg/mL, of MTT solution, and incubated in a cell incubator for 3-4 h. Then the liquid in the well plates was sucked to discard. Each well was added with 150 μL of dimethyl sulfoxide (DMSO), and shaken on an enzyme-labeled instrument for 30 s at ambient temperature so that the Formazan crystals were dissolved sufficiently. The absorbance value A of each well at 570 nm was detected by the enzyme-labeled instrument, and the experiment was repeated for 3 times.
A general note: Formazan colour is commonly taken as a measure of viable cells.

Series [1] in a line: Determination of solubility (HPLC). It is filed as physicochemical. To be noted: thermodynamic from solid, 37° C. overnight, n = 3. As for the experimental part: About 1.325 mg of Icaritin and the synthesized derivative were weighed and dissolved in 1.5 mL methanol respectively, then diluted with methanol into solutions of 10, 20, 50, 100, 150, 200, 500 μg/mL, and filtered over an organic-system filter head of 0.45 μm into sample bottles, obtaining the samples for test. Four parts of Icaritin and the synthesized derivative were weighed respectively, 1.00 mg for each part, and placed into 1.5 mL EP tubes, and 1 mL of water, normal saline, PBS, and 0.1% Tween 80 were respectively added thereto. The obtained solutions were ultrasonicated for 1 h, placed in a water bath at 37° C. overnight, and centrifuged at 10000 r/min for 3 min to collect supernatants. The supernatants were taken into sample bottles and detected by HPLC. The experiments were conducted in parallel for three times. The detection of HPLC is conducted under conditions of a chromatographic column of waters Symmetry C18, a mobile phase of a solution of methanol and water with a ratio of 80:20, a flow rate of 1.0 mL/min, a column temperature of 30° C., a detection wavelength of 210 nm, a run time of 30 min, and a sample load of 20 μL.

For another series, the system named is HepG2 subcutaneous tumor. As to the kind of experiment: Anti-tumor activity in vivo, HepG2 nude mouse model. As to conditions: HepG2 nude mice, intraperitoneally every day for 21 days; equal mole of Icaritin (Icaritin 10 mg/kg). Also noted: species or system Balb/c nude mice. The source says:
According to the investigation results of solubility and cell activity, compounds 51 and 57 with high solubility and strong cell activity were selected to evaluate the anti-hepatoma activity in vivo on HepG2 nude mouse models.
Human hepatoma cells HepG2 were cultivated to logarithmic growth phase in DMEM culture medium containing 10% fetal calf serum and 1% antibiotics (penicillin and streptomycin), and digested by adding 0.25% pancreatin. After the resulting cells were cultivated in DMEM and the pancreatin was removed, they were centrifuged at 1000 rpm for 3 min. Then the cells were collected and washed with free medium until no bubbles produced as observed by naked eyes, and then ° entrifuged. After discarding the supernatant, the cells were resuspended with free medium adjust the cell density to 1×10^6/100 μL.
70 Balb/c nude mice raised in an SPF-grade animal house were taken. 100 μL, HepG2 cells were inoculated subcutaneously at the right lateral rib of each nude mouse. The growing status of nude mice was observed and the subcutaneous tumor volume was measured every day. One week after inoculation, obvious nodules were formed subcutaneously in nude mice. Administration was initiated when the tumor grew to 100 mm^3.
Tumor volume increased to 80-120 mm^3 at two weeks after inoculation, marked as Day 0. The nude mice were randomly divided into 6 groups with 6 mice in each group: a normal saline group (control), an Icaritin group (Icarian), a yyhs-i-b high dose group, a yyhs-1-b low dose group, a yyhs-2-a high dose group, and a yyhs-2-a low dose group. Administration was performed intraperitoneally every day for 21 days totally.
The administration doses were: Icarian at 10 mg/kg, compound 51 high dose at 25.30 mg/kg, low dose at 12.65 mg/kg, compound 57 high dose at 22.91 mg/kg, and low dose at 11.45 mg/kg.
From day 0, the body weights and tumor volumes of nude mice were measured once every three days, in which the maximum diameter (a) of tumor was measured first, and then the longest radial line length (b) perpendicular to the maximum diameter line was measured, in mm, thereby calculating the tumor volume according to the following formula: […]
At the end of the treatment cycle, blood was taken from orbital vein of the nude mice for later blood routine test. Then the nude mice were sacrificed using cervical vertebra dislocation. After taking photos, the tumors were stripped immediately and photographed for record. From day 0, the body weights of each group of nude mice were weighed and recorded every 3 days, and at the same time, the tumor volumes of these nude mice were recorded. The average body weight and tumor volume were calculated for each group, and the curve of body weight versus tumor volume of the nude mice was plotted according to the statistical data.
The hearts, livers, spleens, lungs, and kidneys were subsequently picked from the nude mice, soaked with 4% paraformaldehyde and then preserved at a low temperature of 4° C. for later investigation of the mechanism of the anti-tumor in vivo. The tumor volume growth curve was plotted with the time as the horizontal coordinate, and with the tumor volume as the vertical coordinate. The tumor volume growth curves and the appearance of tumors are seen in FIG. 1. The body weight changing curves of mice are plotted in FIG. 2, with the time as the horizontal coordinate, and the body weight of mice as the vertical coordinate.

For another series, the system named is HepG2 hepatoma cells. Briefly: Anti-tumor activity in vitro, MTT method, HepG2. It counts as cell-based, human. To be noted: Homo sapiens, MTT. As for the experimental part: as §1

Molecules are shown by their SMILES. Values after ≈ are worked out from the molar mass of the structure shown. Like-named read-outs stand apart in the source and are kept apart here.

Consider `COc1ccc(-c2oc3c(CC=C(C)C)c(O)cc(O)c3c(=O)c2O)cc1` [Icaritin, reference compound], for which the half-maximal inhibitory concentration (IC50) in the series on SMMC7721 hepatoma cells (SMMC7721, 48 h, read-out: IC50 SMMC7721 48 h) amounted to 23.2 ± 1.02 µM; with SMMC7721 hepatoma cells (SMMC7721, 72 h, read-out: IC50 SMMC7721 72 h), 15 ± 0.66 µM; in the series with HepG2 hepatoma cells (HepG2, 48 h, read-out: IC50 HepG2 48 h) it was 20.6 ± 2.82 µM; in the series with HepG2 hepatoma cells (HepG2, 72 h, read-out: IC50 HepG2 72 h), 16.1 ± 1.27 µM. Moreover, the solubility amounted to 8.1 ± 0.897 µg/mL (≈ 22 µM) in series [1] (aqueous buffer, PBS, read-out: Solubility, PBS); 8.11 ± 0.672 µg/mL (≈ 22 µM) in series [1] (aqueous with cosolvent or surfactant or cyclodextrin, 0.1% Tween 80, read-out: Solubility, 0.1% Tween 80); 8.1 ± 1.01 µg/mL (≈ 22 µM) in series [1] (saline or isotonic, normal saline, read-out: Solubility, Normal Saline); 8.57 ± 0.832 µg/mL (≈ 23.3 µM) in series [1] (water, read-out: Solubility, Water). In the series on HepG2 subcutaneous tumor, this compound returned a tumor inhibition rate of 53%.

The values are drawn from patent US20240067672A1, “FLAVONE DERIVATIVE FOR TREATING TUMORS AND USE THEREOF” (SICHUAN FUSHENGYUAN TECHNOLOGY CO., LTD, priority 2019, published 2024).
